Measured values: patent US7173129B2, “Sulfonamide-substituted chalcone derivatives and their use to treat diseases” (Athero Genics, Inc., priority 2003, dated 2007)
pIC50: −log10 of the molar value.

Legend:
VCAM-1 = experiment: In Vitro VCAM-1 Assay (TNF-α stimulated endothelial cells, cell-surface ELISA); format: cell-based; conditions: primary human aortic (HAEC) or pulmonary (HPAEC) endothelial cells, TNF-α 1 ng/ml, approximately 16 hours, ELISA OD 450 nm
Protocol: Cell Culture and compound dosing: Cultured primary human aortic (HAEC) or pulmonary (HPAEC) endothelial cells were obtained from Clonetics, Inc., and were used below passage 9. Cells were seeded in 96 well plates such that they would reach 90–95% confluency by the following day. On the following day the cells were stimulated with TNF-α (1 ng/ml) in the presence or absence of compounds dissolved in DMSO such that the final concentration of DMSO is 0.25% or less. To establish a dose curve for each compound, four concentrations in 2- to 5-fold increments were used. Cells were exposed to TNF-α and compounds for approximately 16 hours. The next day the cells were examined under microscope to score for visual signs of toxicity or cell stress.
Following 16 hr exposure to TNF-α and compound the media was discarded and the cells were washed once with Hanks Balanced Salt Solution (HBSS)/Phosphate buffered saline (PBS) (1:1). Primary antibodies against VCAM-1 (0.25 μg/ml in HBSS/PBS+5% FBS) were added and incubated for 30–60 minutes at 37° C. Cells were washed with HBSS/PBS three times, and secondary antibody Horse Radish Peroxidase (HRP)-conjugated goat anti-mouse IgG (1:500 in HBSS/PBS+5% FBS) were added and incubated for 30 minutes at 37° C. Cells were washed with HBSS/PBS four time and TMB substrate were added and incubated at room temperature in the dark until there was adequate development of blue color. The length of time of incubation was typically 5–15 minutes. 2N sulfuric acid was added to stop the color development and the data was collected by reading the absorbance on a BioRad ELISA plate reader at OD 450 nm. The results are expressed as IC50 values (the concentration (micromolar) of compound required to inhibit 50% of the maximal response of the control sample stimulated by TNF-α only).

[1] = Homo sapiens, Endothelial cell, 16 h

| SMILES | pIC50 (VCAM-1; [1]) | melting point | pIC50 (VCAM-1; sodium salt) | pIC50 (VCAM-1; Endothelial cell) |
| --- | --- | --- | --- | --- |
| COc1cc(OC)c(-c2cccs2)cc1/C=C/C(=O)c1ccc(S(=O)(=O)NN2CCCCC2)cc1 [Example 22, 4-[3E-(2,4-Dimethoxy-5-thien-2-ylphenyl)acryloyl]-N-piperidin-1-ylbenzenesulfonamide] | < 5.00 | 174 to 176 °C |  |  |
| COc1cc(OC)c(-c2cccs2)cc1/C=C/C(=O)c1ccc(S(=O)(=O)NCCCn2ccnc2)cc1 [Example 23, 4-[3E-(2,4-Dimethoxy-5-thien-2-ylphenyl)acryloyl]-N-(3-imidazol-1-ylpropyl)benzenesulfonamide] | > 5.30 | 160 to 162 °C |  |  |
| COc1cc(OC)c(-c2cccs2)cc1/C=C/C(=O)c1ccc(S(=O)(=O)NCC(F)(F)F)cc1 [Example 24, 4-[3E-(2,4-Dimethoxy-5-thien-2-ylphenyl)acryloyl]-N-(2,2,2-trifluoroethyl)benzenesulfonamide] | > 5.30 | 167 to 168 °C |  |  |
| COc1cc(OC)c(-c2cccs2)cc1/C=C/C(=O)c1ccc(S(=O)(=O)NC(C)(C)C(=O)O)cc1 [Example 27, 2-{4-[3E-(2,4-Dimethoxy-5-thien-2-yl-phenyl)acryloyl]benzenesulfonylamino}-2-methylpropionic acid] | > 5.00 | 205 °C (dec.) |  |  |
| CNS(=O)(=O)c1ccc(C(=O)/C=C/c2cc(-c3cc4ccccc4n3C)c(OC)cc2OC)cc1 [Example 29, 4-{3E-[2,4-Dimethoxy-5-(1-methyl-1H-indol-2-yl)phenyl]acryloyl}-N-methyl-benzenesulfonamide] | > 5.30 | 129 to 131 °C |  |  |
| COc1cc(OC)c(-c2cc3ccccc3n2C)cc1/C=C/C(=O)c1ccc(S(=O)(=O)N(C)C)cc1 [Example 31, 4-{3E-[2,4-Dimethoxy-5-(1-methyl-1H-indol-2-yl)phenyl]acryloyl}-N,N-dimethylbenzenesulfonamide] | > 5.00 | 120 to 122 °C |  |  |
| COc1cc(OC)c(-c2cc3ccccc3[nH]2)cc1/C=C/C(=O)c1ccc(S(=O)(=O)N(C)C)cc1 [Example 32, 4-{3E-[5-(1H-Indol-2-yl)-2,4-dimethoxyphenyl]acryloyl}-N,N-dimethylbenzenesulfonamide] | > 5.30 | 158 to 162 °C |  |  |
| COc1cc(OC)c(-c2cc3ccccc3n2C)cc1/C=C/C(=O)c1ccc(S(=O)(=O)NO[Si](C)(C)C(C)(C)C)cc1 [Example 33, 4-{3E-[2,4-Dimethoxy-5-(1-methyl-1H-indol-2-yl)phenyl]acryloyl}-N-(tert-butyldimethylsiloxy)benzenesulfonamide] |  | 129 to 131 °C |  | < 5.00 |
| COc1cc(OC)c(N2CCCC2)cc1/C=C/C(=O)c1ccc(S(=O)(=O)Nc2cc(C)on2)cc1 [Example 38, 4-[3E-(2,4-Dimethoxy-5-pyrrolidin-1-yl-phenyl)acryloyl]-N-(5-methyl-isoxazol-3-yl)benzenesulfonamide] | > 5.30 | 164 to 165 °C |  |  |
| COc1cc(OCCCO)c(/C=C/C(=O)c2ccc(S(=O)(=O)Nc3cc(C)on3)cc2)cc1-c1cccs1 [Example 39, 4-{3E-[2-(3-Hydroxy-propoxy)-4-methoxy-5-thien-2-ylphenyl]acryloyl}-N-(5-methylisoxazol-3-yl)benzenesulfonamide] | > 5.30 | 178 to 182 °C |  |  |
| COc1cc(OC)c(N2CCCC2)cc1/C=C/C(=O)c1ccc(S(=O)(=O)NCc2ccccn2)cc1 [Example 53, 4-[3E-(2,4-Dimethoxy-5-pyrrolidin-1-ylphenyl)acryloyl]-N-pyridin-2-ylmethylbenzenesulfonamide] | > 5.30 | 112 to 116 °C |  |  |
| COc1cc(OC)c(N2CCCC2)cc1/C=C/C(=O)c1ccc(S(=O)(=O)NCCCn2ccnc2)cc1 [Example 54, 4-[3E-(2,4-Dimethoxy-5-pyrrolidin-1-ylphenyl)acryloyl]-N-(3-imidazol-1-ylpropyl)benzenesulfonamide] | < 5.30 | 140 to 143 °C |  |  |

The next lines start with results.

| pIC50 (VCAM-1; [1]) | melting point | pIC50 (VCAM-1; sodium salt) | SMILES | pIC50 (VCAM-1; Endothelial cell) |
| --- | --- | --- | --- | --- |
| > 5.30 | 167 to 168 °C |  | COc1cc(OC)c(-c2cccs2)cc1/C=C/C(=O)c1ccc(S(=O)(=O)NCc2cccnc2)cc1 [Example 19, 4-[3E-(2,4-Dimethoxy-5-thien-2-ylphenyl)acryloyl]-N-pyridin-3-ylmethylbenzenesulfonamide] |  |
| > 5.30 | 171 to 172 °C |  | COc1cc(OC)c(-c2cccs2)cc1/C=C/C(=O)c1ccc(S(=O)(=O)NCCN2CCOCC2)cc1 [Example 20, 4-[3E-(2,4-Dimethoxy-5-thien-2-ylphenyl)acryloyl]-N-(2-morpholin-4-yl-ethyl)benzenesulfonamide] |  |
| < 5.00 | 100 to 101 °C |  | COc1cc(OC)c(-c2cccs2)cc1/C=C/C(=O)c1ccc(S(=O)(=O)NCC(=O)O)cc1 [Example 26, {4-[3E-(2,4-Dimethoxy-5-thien-2-ylphenyl)acryloyl]benzenesulfonylamino}acetic acid] |  |
| > 5.00 | 214 to 216 °C |  | CONS(=O)(=O)c1ccc(C(=O)/C=C/c2cc(-c3cc4ccccc4n3C)c(OC)cc2OC)cc1 [Example 30, 4-{3E-[2,4-Dimethoxy-5-(1-methyl-1H-indol-2-yl)phenyl]acryloyl}-N-methoxybenzenesulfonamide] |  |
| < 5.00 | > 260 °C |  | COc1cc(OC)c(-c2cc3ccccc3n2C)cc1/C=C/C(=O)c1ccc(S(=O)(=O)NO)cc1 [Example 34, 4-{3E-[2,4-Dimethoxy-5-(1-methyl-1H-indol-2-yl)phenyl]acryloyl}-N-hydroxybenzenesulfonamide] |  |
| > 5.30 | 243 to 245 °C (dec.) |  | COc1cc(OC)c(-c2cc3ccccc3[nH]2)cc1/C=C/C(=O)c1ccc(S(=O)(=O)NC(=O)C(C)C)cc1 [Example 35, 4-{3E-[5-(1H-Indol-2-yl)-2,4-dimethoxyphenyl]acryloyl}-N-isobutyrylbenzenesulfonamide] |  |
| > 5.30 | 144 to 146 °C |  | CCCC(=O)NS(=O)(=O)c1ccc(C(=O)/C=C/c2cc(-c3cc4ccccc4n3C)c(OC)cc2OC)cc1 [Example 37, N-Butyryl-4-{3E-[2,4-dimethoxy-5-(1-methyl-1H-indol-2-yl)phenyl]acryloyl}benzenesulfonamide] |  |
| < 5.00 | 218 to 220 °C |  | COc1cc(OC)c(-c2cc3ccccc3[nH]2)cc1/C=C/C(=O)c1ccc(S(=O)(=O)NC(C)=O)cc1 [Example 42, N-Acetyl-4-{3E-[5-(1H-indol-2-yl)-2,4-dimethoxyphenyl]acryloyl}benzenesulfonamide] |  |
|  | 240 to 250 °C | > 5.30 | COc1cc(OC)c(-c2cc3ccccc3[nH]2)cc1/C=C/C(=O)c1ccc(S(=O)(=O)[N-]C(C)=O)cc1.[Na+] [Example 43, N-Acetyl-4-{3E-[5-(1H-indol-2-yl)-2,4-dimethoxyphenyl]acryloyl}benzenesulfonamide sodium salt] |  |
| > 5.30 | 113 to 115 °C |  | COc1cc(OC)c(-c2cccn2C)cc1/C=C/C(=O)c1ccc(S(=O)(=O)Nc2cc(C)on2)cc1 [Example 44, 4-{3E-[2,4-Dimethoxy-5-(1-methyl-1H-pyrrol-2-yl)phenyl]acryloyl}-N-(5-methyl-isoxazol-3-yl)benzenesulfonamide] |  |
| > 5.30 | 223 to 225 °C |  | CCC(=O)NS(=O)(=O)c1ccc(C(=O)/C=C/c2cc(-c3cc4ccccc4[nH]3)c(OC)cc2OC)cc1 [Example 45, 4-{3E-[5-(1H-Indol-2-yl)-2,4-dimethoxyphenyl]acryloyl}-N-propionyl-benzenesulfonamide] |  |
| < 5.00 | 197 to 200 °C |  | COc1cc(OC)c(-c2cc3ccccc3[nH]2)cc1/C=C/C(=O)c1ccc(S(=O)(=O)NCCCn2ccnc2)cc1 [Example 50, N-(3-Imidazol-1-yl-propyl)-4-{3E-[5-(1H-indol-2-yl)-2,4-dimethoxy-phenyl]acryloyl}benzenesulfonamide] |  |
| < 5.00 | 189 to 190 °C |  | COc1cc(OC)c(-c2cc3ccccc3[nH]2)cc1/C=C/C(=O)c1ccc(S(=O)(=O)NCC(=O)O)cc1 [Example 51, (4-{3E-[5-(1H-Indol-2-yl)-2,4-dimethoxyphenyl]acryloyl}benzenesulfonylamino)acetic acid] |  |
| > 5.30 | 124 to 128 °C |  | COc1cc(OC)c(N2CCCC2)cc1/C=C/C(=O)c1ccc(S(=O)(=O)Nc2ccccn2)cc1 [Example 52, 4-[3E-(2,4-Dimethoxy-5-pyrrolidin-1-yl-phenyl)-acryloyl]-N-pyridin-2-yl-benzenesulfonamide] |  |
